# Assay results from patent US12109215B2, “Combination therapies for inhibition of polo-like kinase 4” (UNIVERSITY HEALTH NETWORK, priority 2017, dated 2024).
# How the values were obtained:
# CT26 tumor = assay: Established CT26 tumor treatment in BALB/cJ mice (tumor volume, regression); type: in vivo
# Experimental: (§1) BALB/cJ mice were inoculated subcutaneously with 1×10^6 CT26 cells, and C57BL/6 mice were inoculated subcutaneously with 0.5×10^6 MC38 cells. The mice were then randomized. Animal weights were monitored daily, and tumor volume was measured three times per week.
# (§2) […] was defined as 100×[1−TVf,treated−TVi,treated)/(TVf,control−TVi,control)], where TVf is the average tumor volume at the end of study and TVi is the average tumor volume at the end initiation of treatment. In cases in which tumor regression occurred, percentage of tumor regression was defined as 100×[1−(TVf,treated/TVi,treated)]. At the completion of each study, the mice were killed by an anesthetic overdose, and tumor tissue was removed for further analysis.
# (§3) Treatments were initiated when tumor volumes reached an average size of ˜60 mm^3. To treat an established CT26 or MC38 tumor, the animals were first assigned into groups, i.e., the control group receiving rat IgG2a isotype control, the group receiving the compound CFI-400945 monotherapy, the group receiving the rat IgG2a anti-PD-1 antibody monotherapy and the group receiving the combination therapy.
# The compound CFI-400945 and the vehicle (water) were administered by oral gavage (PO), at one of the following dosages: (i) 6.5 mg/kg once daily (QD) for 21 days; (ii) 13 mg/kg twice a week (BIW or 2 on/5 off) for 21 days; (iii) 52 mg/kg once weekly (QW) for 21 days; and (iv) 104 mg/kg in two doses, i.e., on Days 0 and 14.
# (§4) The anti-PD-1 antibody or the isotype control were administered by intraperitoneal (IP) injection. 150 μg anti-PD-1 antibody was administered in four doses, i.e., on Days 0, 3, 6 and 10.
# [1] = Tolerability in the CT26 tumor study (body weight, animal death); type: in vivo
# Experimental: as §1, §4
# CT26 cells = assay: Re-challenge by inoculation with CT26 cells on Day 36 of animals with complete regression; type: in vivo, BALB/cJ mice
# Experimental: Further to the tumor volume measurements, the animals in which complete regression had occurred as described above, either by CFI-400945 monotherapy or by IgG2a anti-PD-1 antibody-CFI-400945 combination therapy, were re-challenged by inoculation with CT26 cells on Day 36, as shown in FIGS. 1D (6.5 mg/kg QD CFI-400945+anti-PD-1 antibody), 1E (13 mg/kg BIW CFI-400945), 1F (13 mg/kg BIW CFI-400945+anti-PD-1 antibody), 1G (52 mg/kg QW CFI-400945), 1H (52 mg/kg QW CFI-400945+anti-PD-1 antibody) and 1J (104 mg/kg CFI-400945 on Days 0 and 14+anti-PD-1 antibody).
# MC38 tumor = assay: Established MC38 tumor treatment in C57BL/6 mice (tumor volume, regression); type: in vivo; conditions: first batch of MC38 experiments; CFI-400945 6.5 mg/kg once daily for 21 days, alone (FIG. 2C) or with anti-PD-1 antibody 150 μg Days 0, 3, 6, 10 (FIG. 2D)
# Experimental: as §1, §2
# as §3, with “therapy. […]” for “therapy.”
# [2] = CFI-400945 104 mg/kg PO on Days 0 and 14
smiles,measurement,setting,value
COc1ccc2c(c1)[C@]1(C[C@H]1c1ccc3c(/C=C/c4ccc(CN5C[C@@H](C)O[C@@H](C)C5)cc4)n[nH]c3c1)C(=O)N2 [CFI-400945],complete regression of CT26 tumors,"CT26 tumor; CFI-400945 6.5 mg/kg PO once daily for 21 days, alone (FIG. 1C) or with anti-PD-1 antibody 150 μg IP Days 0, 3, 6, 10 (FIG. 1D)",no instances in which complete regression was observed
same,CT26 tumor growth,"CT26 tumor; CFI-400945 6.5 mg/kg PO once daily for 21 days, single agent (FIG. 1C)",tumor growth delay
same,CT26 tumors with regression,"CT26 tumor; CFI-400945 13 mg/kg PO twice a week for 21 days, alone (FIG. 1E) or with anti-PD-1 antibody 150 μg IP Days 0, 3, 6, 10 (FIG. 1F)",one of the eight
same,CT26 tumors with regression,"CT26 tumor; CFI-400945 52 mg/kg PO once weekly for 21 days, alone (FIG. 1G) or with anti-PD-1 antibody 150 μg IP Days 0, 3, 6, 10 (FIG. 1H)",one of the eight
same,tolerability of dosage,[1]; CFI-400945 6.5 mg/kg PO daily for 21 days,well-tolerated
same,body weight loss or animal death,"[1]; CFI-400945 6.5 mg/kg PO daily for 21 days, data not shown",lack of any significant body weight loss (data not shown) or any animal death
same,tolerability of dosage,[1]; CFI-400945 13 mg/kg PO twice a week for 21 days,well-tolerated
same,tolerability of dosage,[1]; CFI-400945 52 mg/kg PO once weekly for 21 days,well-tolerated
same,animals found dead,[1]; [2],two
same,tolerability of dosage,[1]; [2],not be well-tolerated
same,tumor growth after re-challenge with CT26 cells on Day 36,"CT26 cells; animals with complete regression after CFI-400945 13 mg/kg BIW, alone (FIG. 1E) or + anti-PD-1 antibody (FIG. 1F)",tumors did not grow in any mouse
same,tumor growth after re-challenge with CT26 cells on Day 36,"CT26 cells; animals with complete regression after CFI-400945 52 mg/kg QW, alone (FIG. 1G) or + anti-PD-1 antibody (FIG. 1H)",tumors did not grow in any mouse
same,regression of MC38 tumors,MC38 tumor,Regression was also observed
